In patent publication US9394547B2, “Method and apparatus for delivery of molecules to cells” (CITY UNIVERSITY OF HONG KONG, priority 2012, dated 2016):
Structures can show the parent of a compound that is named as a salt.

Experiments:
[1] = system: A549 cells; experiment: Live-cell confocal imaging of luminescent iridium(III) complex delivery; format: cell-based
Method: In this embodiment, suspension with the subjects was applied to the nanoneedle array at a speed of about 3.0 m/s. After treatment with the nanooneedles, the cells were grown on a sterile glass coverslip for 19 hours followed by PBS washing and then investigated by fluorescence confocal microscopy. Negligible cell death was found under microscopy in the experiments. FIG. 12a is a representative image showing the intracellular delivery of the iridium(III) polypyridine complex to A549 cells. […] In comparison, FIG. 12b is the image of the control group in which the cells were incubated with the complex for 19 hours but not treated with nanoneedles before incubation. FIGS. 12a and 12b were taken under the same microscope settings. […] (The arrows in the figures indicate the cells in which direct nucleic delivery of the luminescent complex is achieved with diamond needles treatment. The scale bars in FIGS. 12a), b), e) and f) indicate 25 μm).
The fluorescence intensities in the cytoplasm of the two selected cells were normalized to be the same value and the fluorescence intensities in the nucleus of the two cells were compared. The representative results are shown in FIG. 12c for a nanoneedle-treated cell and FIG. 12d for a cell without treatment. […] For the nanoneedle treated group, unexpectedly, a number of cells in which the fluorescence signal was almost evenly distributed in the entire cells were found. For this reason, it was not apparent to locate their nuclei (indicated by the arrows in FIGS. 12e and 12f).
A549 cells were maintained as exponentially growing cultures in a Dulbecco's modified Eagle's medium (DMEM) with 10% FBS and 1% penicillin/streptomycin at 37° C. The cells were trypsinized and suspended in DMEM medium. There are about 6×10^4 cells in one milliliter. Iridium(III) polypyridine complex was added to the cell medium at a concentration of 0.1 μM. […]
A549 cell suspension in medium/DMSO (99:1, v/v) containing [Ir(ppy)2(bpy-Et)](PF6) (0.1 μM) was prepared. […] The emission was measured using a long-pass filter at 532 nm.

[2] = system: MC-3T3 cells; experiment: Flow cytometry of fluorescein intracellular delivery with diamond nanocone array; format: cell-based, Mouse; details: fluorescein 1 mg/ml
Method: Mouse MC3T3-E1 pre-osteoblasts, which can differentiate into osteoblasts, were used in the present study. The cells were cultured at 37° C. with 5% carbon dioxide (CO2) and 95% humidified air in Dulbecco's Modified Eagle Medium (DMEM) (Gibco) supplemented with 10% fetal bovine serum (FBS) (Gibco). The medium was renewed every 2-3 days and confluent cells were subcultured through trypsinization.
Three groups of cells were studied. One group was untreated cells. Other two groups included the cells which were treated by smooth silicon substrate and diamond nanocone array. For treatment, a volume of […] MC-3T3 cell suspension was applied to the substrate with a speed of about 3 ms^−1 by a pipette (FIG. 16). After the application, the cell suspension was collected and pipetted to the substrate again with a similar speed. Such cell treatment procedure was repeated for 15 times. The same procedures were used in all experiments for enhanced intracellular delivery. Following cell treatment, cells were plated into 96-well microtiter plates. After 22 hours, morphology of each group of cells was observed by optical microscopy. After 24 hours, cell viability was determined by MTT assay.
Subsequently, the enhanced intracellular delivery capability of the diamond nanocone array was firstly assessed by investigating the fluorescence intensity of fluorescein sodium salt stain in treated cells by quantitative analysis through flow cytometry. MC-3T3 cells were harvested at a density of 10^4 cells/ml. Fluorescien was added to cell growth medium at a concentration of 1 mg/ml. After the addition of fluorescein, a volume of 1 ml of this cell suspension was treated with the same method as that described above. Two experiments were arranged in investigating the intracellular delivery of fluorescein sodium salt. In one experiment, the negative control was to apply cells to a smooth silicon substrate without the nanocone array. In the other experiment, untreated cells were used as the control (i.e. neither nanocone array nor smooth Si substrate was used). After 15 min of staining, the suspensions of control and treated group cells were pelleted by centrifugation (Spectrafuge™ 16 M, Labnet) at 6000 rpm for 3 min, after which the supernatants were removed. The cell pellets were washed by 1 mL of phosphate buffered saline (PBS) and then resuspended throughly. The cell suspensions were centrifuged again at 6000 rpm for 3 min, and the cell pelletes were washed by PBS for 3 times in total. Finally, the cell suspensions were prepared with a concentration of 10^4 cells in PBS and then immediately analysed using a flow cytometer (Becton DICKINSON, FACSCalibur cytometer) by counting 1×10^4 cells per sample. […]

[3] = system: NIH3T3 fibroblast cells; experiment: Cytosolic delivery into fibroblast cells by diamond nanoneedle array under centrifugation (live/dead calcein AM/EthD-1 staining); format: cell-based
Text: This kit has been widely used to characterize cell viability and cytotoxicity. In the assays, with application of nanoneedle array to cells, the membrane-permeant calcein AM enters cells and is cleaved by esterases in live cells to yield cytoplasmic green fluorescence; while the membrane-impermeant ethidium homodimer-1 (EthD-1) labels nucleic acids of membrane-disrupted cells with red fluorescence. […] In comparison, dead cells were labeled with only red fluorescence (FIG. 5). FIG. 5a are representative images of fibroblast cells after successful cytosolic delivery of EthD-1; FIG. 5b is a chart showing quantification of delivery efficiency; and FIG. 5c is a chart showing quantification of cell viability after being treated with nanoneedles arrays; all at a scale bar of 100 um.
In an embodiment, the penetration and subsequent disruption of cell membrane by nanoneedles was precisely controlled by centrifugation-induced supergravity to achieve reliable, highly efficient, diffusion based cytosolic delivery. In a specific embodiment, in order to optimize the force applied onto the cell membranes through nanoneedles, the whole setup (cell culture plus nanoneedle array) was maintained in supergravity by centrifugation at a series of speeds from 300 rpm (12.8 g, RCF) to 1000 rpm (142 g). […]

[4] = system: primary hippocampal neurons; experiment: Cytosolic delivery into primary hippocampal neurons by diamond nanoneedle array under centrifugation (live/dead staining); format: cell-based; details: around 300 rpm (12.8 g)
Method: Intracellular delivery into post-mitotic cells, such as neuron, has always been challenging. […] Compared with fibroblast cells, neurons are more vulnerable to membrane disruption induced by nanoneedle arrays. Generally, a relatively lower speed would be required to achieve similar delivery efficiency as in fibroblast cells (FIG. 6). […] Therefore, a centrifuging speed of 300-400 rpm was selected for following experiments with primary neurons. FIG. 6a are representative images of fibroblast cells after successful cytosolic delivery of EthD-1; FIG. 6b is a chart showing quantification of delivery efficiency; and FIG. 6c is a chart showing quantification of cell viability after being treated with nanoneedles arrays; all at a scale bar of 100 um.
Hippocampal neuron cultures were prepared following the method previously described. Briefly, dissociated neurons were prepared from hippocampi dissected from E18 Sprague Dawley rats by enzymatic treatment with papain (Sigma) for 30 min at 37° C. followed by trituration with a 1 ml pipette tip. Before seeding neurons, all substrates were pre-coated with polylysine (Sigma, 100 μg ml^−1) and laminin (Invitrogen, 10 μg ml^−1). Neuron cells were treated with nanoneedle arrays at 6-7 days in vitro (DIV).
Nanoneedle array was placed to float on culture medium with the needles facing toward cells. […]

[Ir(ppy)2(bpy-Et)](PF6) [iridium(III) polypyridine complex]
fluorescence signal ([1]; A549 cells, 0.1 μM, 19-hour incubation, not treated with nanoneedles): extremely weak | intracellular localization ([1]; A549 cells, 0.1 μM, nanoneedle treated, 19 hours): mainly localized in the perinuclear region | nuclear uptake ([1]; by diffusion, without nanoneedles): negligible nuclear uptake

O=C1OC2(c3ccc(O)cc3Oc3cc(O)ccc32)c2ccccc21 [fluorescein sodium salt]
M3, percentage of cells with fluorescence intensity 1×10^2 to 1×10^3 ([2]; FIG. 20, cells treated with the nanocone array): 73.5% | M2, percentage of cells with fluorescence intensity 1×10^1 to 1×10^2 ([2]; FIG. 20, control cells applied to smooth Si substrate): 63.1% | M3, percentage of cells with fluorescence intensity 1×10^2 to 1×10^3 ([2]; FIG. 21, cells treated with the nanocone array): 62.4% | M2, percentage of cells with fluorescence intensity 1×10^1 to 1×10^2 ([2]; FIG. 21, untreated sample (no nanocone, no Si substrate)): 70.0%

ethidium homodimer-1 [EthD-1]
cytosolic delivery efficiency of EthD-1 ([3]; centrifugation 300 rpm): ~5% | cytosolic delivery efficiency of EthD-1 ([3]; centrifugation 500 rpm or above): ~80% | delivery efficiency of EthD-1 [4]: about 80%
